Measurements published in ChEMBL document CHEMBL2074131, “Inhibition of P-glycoprotein function by XR9576 in a solid tumour model can restore anticancer drug efficacy” (Eur J Cancer, 2004).

Molecular target: ATP-dependent translocase ABCB1 (Homo sapiens, UniProt P08183)
Assay: TP_TRANSPORTER: drug resistance (vinblastine) in NCI/ADRRes cells
Format: functional, cell-based

ATP-dependent translocase ABCB1, sequence (P08183 whole entry): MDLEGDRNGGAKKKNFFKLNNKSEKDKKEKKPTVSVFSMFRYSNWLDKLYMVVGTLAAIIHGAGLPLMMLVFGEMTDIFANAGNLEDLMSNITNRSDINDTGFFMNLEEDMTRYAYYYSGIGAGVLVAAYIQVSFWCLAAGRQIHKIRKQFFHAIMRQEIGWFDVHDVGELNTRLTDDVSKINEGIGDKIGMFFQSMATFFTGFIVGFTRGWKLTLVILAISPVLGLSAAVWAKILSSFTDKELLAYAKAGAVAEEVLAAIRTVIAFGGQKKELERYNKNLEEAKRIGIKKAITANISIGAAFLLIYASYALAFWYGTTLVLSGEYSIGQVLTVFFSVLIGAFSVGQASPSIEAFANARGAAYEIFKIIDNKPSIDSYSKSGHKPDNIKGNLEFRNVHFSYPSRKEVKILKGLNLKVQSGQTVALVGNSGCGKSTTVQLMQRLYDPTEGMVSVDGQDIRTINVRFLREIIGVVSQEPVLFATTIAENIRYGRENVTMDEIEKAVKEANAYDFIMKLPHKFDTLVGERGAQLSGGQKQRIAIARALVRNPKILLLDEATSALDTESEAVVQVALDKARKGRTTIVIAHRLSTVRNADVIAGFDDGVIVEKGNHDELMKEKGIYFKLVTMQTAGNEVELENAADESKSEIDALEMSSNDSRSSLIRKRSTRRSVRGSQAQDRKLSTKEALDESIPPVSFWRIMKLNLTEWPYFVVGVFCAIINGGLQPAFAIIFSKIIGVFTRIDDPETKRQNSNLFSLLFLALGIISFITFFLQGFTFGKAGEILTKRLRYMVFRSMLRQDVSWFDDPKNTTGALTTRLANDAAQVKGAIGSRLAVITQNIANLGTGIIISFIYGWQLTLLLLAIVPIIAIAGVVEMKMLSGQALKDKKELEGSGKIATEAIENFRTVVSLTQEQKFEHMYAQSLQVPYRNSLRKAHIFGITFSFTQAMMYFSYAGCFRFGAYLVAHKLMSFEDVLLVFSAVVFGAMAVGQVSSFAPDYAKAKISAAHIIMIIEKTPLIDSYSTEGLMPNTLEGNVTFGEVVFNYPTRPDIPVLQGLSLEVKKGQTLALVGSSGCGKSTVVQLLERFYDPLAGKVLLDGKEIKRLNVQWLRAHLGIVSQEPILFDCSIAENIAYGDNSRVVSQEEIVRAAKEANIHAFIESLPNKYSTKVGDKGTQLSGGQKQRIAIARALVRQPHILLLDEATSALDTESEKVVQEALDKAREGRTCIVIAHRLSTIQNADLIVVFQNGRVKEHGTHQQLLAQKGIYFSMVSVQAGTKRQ

- Activity: inhibitor [+]
Structure (SMILES): COc1cc2c(cc1OC)CN(CCc1ccc(NC(=O)c3cc(OC)c(OC)cc3NC(=O)c3cnc4ccccc4c3)cc1)CC2 [TARIQUIDAR]
